From PubChem BioAssay (NCI)
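Briefly, cells in 96-well plates were exposed to five compound concentrations for 48 h, and endpoints were estimated by linear interpolation. GI50 is the concentration that inhibits growth by half. At the TGI there is no net growth.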

Columns and labels:
Assay in all cases: DTP human tumour cell line panel, 48 h
SK-OV-3 ovarian = test system: SK-OV-3 ovarian
LOX IMVI melanoma = test system: LOX IMVI melanoma
HCT-116 colon = test system: HCT-116 colon
SK-MEL-5 melanoma = test system: SK-MEL-5 melanoma
HT29 colon = test system: HT29 colon
SF-268 CNS = test system: SF-268 CNS
OVCAR-5 ovarian = test system: OVCAR-5 ovarian
DMS 114 small cell lung = test system: DMS 114 small cell lung
MALME-3M melanoma = test system: MALME-3M melanoma
KM20L2 colon = test system: KM20L2 colon
COLO 205 colon = test system: COLO 205 colon
ACHN renal = test system: ACHN renal
RPMI-8226 leukemia = test system: RPMI-8226 leukemia
OVCAR-4 ovarian = test system: OVCAR-4 ovarian
SF-295 CNS = test system: SF-295 CNS
OVCAR-8 ovarian = test system: OVCAR-8 ovarian
HCC-2998 colon = test system: HCC-2998 colon
TK-10 renal = test system: TK-10 renal
A549 NSCLC = test system: A549 NSCLC
CCRF-CEM leukemia = test system: CCRF-CEM leukemia
XF 498 CNS = test system: XF 498 CNS
NCI-H522 lung = test system: NCI-H522 lung
DLD-1 colon = test system: DLD-1 colon
EKVX NSCLC = test system: EKVX NSCLC
UACC-257 melanoma = test system: UACC-257 melanoma
SNB-19 CNS = test system: SNB-19 CNS
M14 melanoma = test system: M14 melanoma
UACC-62 melanoma = test system: UACC-62 melanoma
U251 CNS = test system: U251 CNS
UO-31 renal = test system: UO-31 renal
SK-MEL-28 melanoma = test system: SK-MEL-28 melanoma
SW-620 colon = test system: SW-620 colon
SF-539 CNS = test system: SF-539 CNS
K-562 leukemia = test system: K-562 leukemia
IGROV1 ovarian = test system: IGROV1 ovarian
MOLT-4 leukemia = test system: MOLT-4 leukemia
786-0 renal = test system: 786-0 renal
NCI-H23 lung = test system: NCI-H23 lung
SK-MEL-2 melanoma = test system: SK-MEL-2 melanoma
LXFL 529 NSCLC = test system: LXFL 529 NSCLC
HOP-92 NSCLC = test system: HOP-92 NSCLC
HCT-15 colon = test system: HCT-15 colon
CAKI-1 renal = test system: CAKI-1 renal
HL-60(TB) leukemia = test system: HL-60(TB) leukemia
SN12C renal = test system: SN12C renal
KM12 colon = test system: KM12 colon
SNB-78 CNS = test system: SNB-78 CNS
HOP-62 NSCLC = test system: HOP-62 NSCLC
OVCAR-3 ovarian = test system: OVCAR-3 ovarian
NCI-H226 lung = test system: NCI-H226 lung
M19-MEL melanoma = test system: M19-MEL melanoma
RXF 393 renal = test system: RXF 393 renal
SNB-75 CNS = test system: SNB-75 CNS
A498 renal = test system: A498 renal
SR leukemia = test system: SR leukemia
NCI-H460 lung = test system: NCI-H460 lung

Q: Which results are given for `CC(=O)NNc1nc(C)c(C(=O)NNC(=O)C(=O)Nc2ccc(Cl)cc2Cl)s1`?
A: TGI (SK-OV-3 ovarian): > 100 µM; TGI (LOX IMVI melanoma): > 100 µM; TGI (HCT-116 colon): > 100 µM; TGI (SK-MEL-5 melanoma): > 100 µM; TGI (HT29 colon): > 100 µM; TGI (SF-268 CNS): 78.6 µM; TGI (OVCAR-5 ovarian): > 100 µM; TGI (DMS 114 small cell lung): > 100 µM; TGI (MALME-3M melanoma): > 100 µM; TGI (KM20L2 colon): > 100 µM; TGI (COLO 205 colon): > 100 µM; TGI (ACHN renal): 87.9 µM; TGI (RPMI-8226 leukemia): > 100 µM; TGI (OVCAR-4 ovarian): 56.8 µM; TGI (SF-295 CNS): > 100 µM; TGI (OVCAR-8 ovarian): > 100 µM; TGI (HCC-2998 colon): > 100 µM; TGI (TK-10 renal): > 100 µM; TGI (A549 NSCLC): > 100 µM; TGI (CCRF-CEM leukemia): 56.2 µM; TGI (XF 498 CNS): > 100 µM; TGI (NCI-H522 lung): 52.8 µM; TGI (DLD-1 colon): > 100 µM; TGI (EKVX NSCLC): > 100 µM; TGI (UACC-257 melanoma): 83.4 µM; TGI (SNB-19 CNS): > 100 µM; TGI (M14 melanoma): > 100 µM; TGI (UACC-62 melanoma): 57.4 µM; TGI (U251 CNS): 82.6 µM; TGI (UO-31 renal): 98.2 µM; TGI (SK-MEL-28 melanoma): > 100 µM; TGI (SW-620 colon): 50.2 µM; TGI (SF-539 CNS): 99.5 µM; TGI (K-562 leukemia): 50.2 µM; TGI (IGROV1 ovarian): > 100 µM; TGI (MOLT-4 leukemia): 57 µM; TGI (786-0 renal): > 100 µM; TGI (NCI-H23 lung): 96.4 µM; TGI (SK-MEL-2 melanoma): > 100 µM; TGI (LXFL 529 NSCLC): > 100 µM; TGI (HOP-92 NSCLC): 70.9 µM; TGI (HCT-15 colon): > 100 µM; TGI (CAKI-1 renal): 75.5 µM; TGI (HL-60(TB) leukemia): 99.2 µM; TGI (SN12C renal): > 100 µM; TGI (KM12 colon): > 100 µM; TGI (SNB-78 CNS): > 100 µM; TGI (HOP-62 NSCLC): > 100 µM; TGI (OVCAR-3 ovarian): 50.5 µM; TGI (NCI-H226 lung): > 100 µM; TGI (M19-MEL melanoma): > 100 µM

Q: Which TGI (SK-OV-3 ovarian) does the source give for `COc1cccc(/C=N/[N-]C(N)=O)c1[O-].[Cu+2].[OH3+].c1ccc(-c2ccccn2)nc1` here?
A: Its TGI is 27.3 µM.

Q: What about the TGI (LOX IMVI melanoma) of the same compound?
A: Its TGI is greater than 81.3 µM.

Q: And the TGI (HCT-116 colon)?
A: Its TGI is greater than 63 µM.

Q: And the TGI (SK-MEL-5 melanoma)?
A: Its TGI is 31.6 µM.

Q: What about the TGI (HT29 colon) of the same compound?
A: Its TGI is greater than 100 µM.

Q: And the TGI (SF-268 CNS)?
A: Its TGI is greater than 100 µM.

Q: What about the TGI (OVCAR-5 ovarian) of the same compound?
A: The TGI was greater than 100 µM.

Q: What about the TGI (MALME-3M melanoma) of the same compound?
A: The TGI was greater than 100 µM.

Q: What about the TGI (KM20L2 colon) of the same compound?
A: The TGI was greater than 100 µM.

Q: And the TGI (RXF 393 renal)?
A: Its TGI is 40.8 µM.

Q: And the TGI (COLO 205 colon)?
A: Its TGI is 55.4 µM.

Q: And the TGI (ACHN renal)?
A: The TGI was 98.9 µM.

Q: And the TGI (RPMI-8226 leukemia)?
A: The TGI was greater than 100 µM.

Q: What about the TGI (OVCAR-4 ovarian) of the same compound?
A: Its TGI is 33.1 µM.

Q: What about the TGI (SF-295 CNS) of the same compound?
A: The TGI was greater than 100 µM.

Q: What about the TGI (OVCAR-8 ovarian) of the same compound?
A: Its TGI is greater than 100 µM.

Q: What about the TGI (HCC-2998 colon) of the same compound?
A: Its TGI is greater than 100 µM.

Q: And the TGI (TK-10 renal)?
A: Its TGI is 42.9 µM.

Q: And the TGI (A549 NSCLC)?
A: Its TGI is greater than 100 µM.

Q: And the TGI (CCRF-CEM leukemia)?
A: Its TGI is greater than 95.6 µM.

Q: What about the GI50 (XF 498 CNS) of the same compound?
A: Its GI50 is 7.92 µM.

Q: What about the TGI (XF 498 CNS) of the same compound?
A: Its TGI is 19.9 µM.

Q: And the TGI (SNB-75 CNS)?
A: Its TGI is 33.9 µM.

Q: What about the TGI (NCI-H522 lung) of the same compound?
A: The TGI was 28.4 µM.

Q: And the TGI (EKVX NSCLC)?
A: The TGI was greater than 78.2 µM.

Q: What about the TGI (A498 renal) of the same compound?
A: Its TGI is 35.8 µM.

Q: And the TGI (UACC-257 melanoma)?
A: The TGI was greater than 100 µM.

Q: And the TGI (SNB-19 CNS)?
A: The TGI was 38.1 µM.

Q: And the TGI (M14 melanoma)?
A: Its TGI is 74 µM.

Q: And the TGI (UACC-62 melanoma)?
A: Its TGI is 31.3 µM.

Q: And the TGI (SR leukemia)?
A: Its TGI is greater than 100 µM.

Q: And the TGI (NCI-H460 lung)?
A: The TGI was greater than 100 µM.

Q: And the TGI (U251 CNS)?
A: The TGI was 31.3 µM.

Q: What about the TGI (UO-31 renal) of the same compound?
A: Its TGI is greater than 100 µM.

Q: And the TGI (SK-MEL-28 melanoma)?
A: The TGI was 41.2 µM.

Q: And the TGI (SW-620 colon)?
A: Its TGI is greater than 100 µM.

Q: And the TGI (SF-539 CNS)?
A: Its TGI is 67.7 µM.

Q: What about the TGI (K-562 leukemia) of the same compound?
A: The TGI was 66 µM.

Q: What about the TGI (IGROV1 ovarian) of the same compound?
A: The TGI was greater than 74.8 µM.

Q: What about the TGI (MOLT-4 leukemia) of the same compound?
A: The TGI was greater than 100 µM.

Q: And the TGI (786-0 renal)?
A: The TGI was 36.6 µM.

Q: What about the TGI (NCI-H23 lung) of the same compound?
A: Its TGI is 37.3 µM.

Q: What about the TGI (SK-MEL-2 melanoma) of the same compound?
A: Its TGI is 45.1 µM.

Q: And the TGI (HOP-92 NSCLC)?
A: Its TGI is 29.8 µM.

Q: And the TGI (HCT-15 colon)?
A: The TGI was greater than 100 µM.

Q: What about the TGI (CAKI-1 renal) of the same compound?
A: The TGI was 83.7 µM.

Q: What about the GI50 (HL-60(TB) leukemia) of the same compound?
A: Its GI50 is 40.6 µM.

Q: And the TGI (HL-60(TB) leukemia)?
A: Its TGI is greater than 79.1 µM.

Q: And the TGI (SN12C renal)?
A: Its TGI is greater than 96.8 µM.

Q: And the TGI (KM12 colon)?
A: The TGI was greater than 100 µM.

Q: What about the TGI (HOP-62 NSCLC) of the same compound?
A: Its TGI is greater than 67.7 µM.

Q: What about the TGI (OVCAR-3 ovarian) of the same compound?
A: The TGI was greater than 100 µM.

Q: And the TGI (NCI-H226 lung)?
A: The TGI was 88.1 µM.
